Peptide text beside a SMILES is read from it.
Structure (SMILES) | logP
O=[N+]([O-])c1ccccc1Br | 2.52
FCC1CO1 (stereo unspecified) | -0.16
O=[N+]([O-])c1cccc2ccccc12 | 3.19
COc1ccc2c(c1)N(C[C@H](C)CN(C)C)c1ccccc1S2 | 4.68
O=C(O)Cc1ccc(I)cc1 | 2.64
CC(C)NNC(=O)COc1cccc(Cl)c1 | 1.91
Cc1cc2c(cc1S(N)(=O)=O)S(=O)(=O)NCN2 | -0.22
C[Se]c1ccccc1 | 2.87
NS(=O)(=O)c1ccc(O)cc1 | 0.06
COc1nnc(OC)c2ccccc12 | 2.22
CC(C)(N)Cc1ccccc1 | 1.9
CCCCCCCCCC(=O)N1CCCC1=O | 4.33
CC(=O)OCC1OC(n2ccnc2[N+](=O)[O-])C(OC(C)=O)C(OC(C)=O)C1OC(C)=O (stereo unspecified) | 0.52
C=CC(=O)c1ccccc1 | 1.88
NNC(=O)c1cccc(I)c1 | 1.53
CCC1(CC(C)C(C)C)C(=O)NC(=O)NC1=O (stereo unspecified) | 2.02
COc1cccc2c1C(=N)c1c(O)c3c(c(O)c1C2=O)CC(O)(C(=O)CO)CC3OC1CC(N2CCOCC2C#N)C(O)C(C)O1 (stereo unspecified) | 1.97
O=C(O)c1ccccn1 | 0.72
COc1cc2c(cc1OC)[C@@]13CCN4CC5=CCO[C@H]6CC(=O)N2[C@H]1[C@H]6[C@H]5C[C@H]43 | 0.98
c1ccc(Sc2cccnc2)cc1 | 3.15
CN(C)C=C[N+](=O)[O-] | -0.8
Nc1ccc(C(=O)Oc2cccc(Cl)c2)c(O)c1 | 3.9
CCOC(=O)C(=Cc1ccccc1)C(C)=O | 2.21
O=C(O)CS | 0.09

Structure (SMILES) | logP
CCO[Si](OCC)(OCC)c1ccccc1 | 2.99
COc1ccc(OC)c(CC(C)N)c1 (stereo unspecified) | 1.72
O=[N+]([O-])C=Cc1ccc(Cl)cc1Cl | 3.26
Clc1cc(Cl)c(Cl)nc1Cl | 3.32
Oc1cnc2ccccc2n1 | 0.8
Oc1ccccc1C(F)(F)F | 2.8
CNn1cc(C(=O)O)c(=O)c2cc(F)c(N3CCN(C)CC3)cc21 | 0.23
O=C(O)CCc1ccc(O)cc1 | 1.16
O=C1c2ccccc2C(=O)C1c1ccccc1 | 2.9
C#CCO | -0.38
C[C@@H]1C[C@H]2C3C[C@H](F)C4=CC(=O)C=CC4(C)[C@@]3(F)[C@@H](O)CC2(C)[C@@]1(O)C(=O)COC(=O)C(C)(C)C (stereo partly specified) | 3.86
Cc1cccc(OCc2ccccc2)n1 | 3.43
Clc1ccc(-c2c(Cl)cccc2Cl)cc1 | 5.75
CCC(C)N(CC(O)COc1ccccc1)CC(O)COc1ccccc1 (stereo unspecified) | 3.46
CCOCCN(CCOCC)N=O | 0.79
CN(C)C(N(C)C)=S(I)c1ccccc1F (stereo unspecified) | -0.55
CNc1cnn(-c2cccc(C(F)(F)F)c2)c(=O)c1Cl | 2.3
CCCc1cccc(OCC(=O)O)c1 | 2.71
N#Cc1ccccc1O | 1.61
COc1ccc(N)cc1Cl | 1.85
Cc1ccnc2ccccc12 | 2.61
COc1cc(NS(=O)(=O)c2ccc(N)cc2)nc(C)n1 | 0.61
Clc1cccc(Cl)n1 | 2.15
Cc1ccc(N)nc1 | 1.02

Structure (SMILES) | logP
CCNc1nc(NC(C)(C)C)nc(SC(F)F)n1 | 4.57
NNC=O | -2.05
CNC(=O)Oc1cccc2ccccc12 | 2.36
O=[N+]([O-])c1cc(Br)c(O)c(Br)c1 | 3.57
CCSC | 1.54
NCCCCc1ccncc1 | 0.86
Cc1ccccc1N(C)C | 2.85
O=C(Nc1ccccc1)N(c1ccccc1)c1ccccc1 | 3.28
CC1=NS(=O)(=O)c2ccccc2N1 | 0.29
C=CCO | 0.17
CC(=O)c1ccc(C)cc1 | 2.1
COc1ccnc2c([N+](=O)[O-])cccc12 | 1.92
NNC(=O)c1ccccc1[N+](=O)[O-] | -0.54
C=CCN1CCc2nc(N)sc2CC1 | 1.48
CC(C)NC(=O)NO | 0.2
O=C(Nc1ccn(C2OC(CO)C(O)C2O)c(=O)n1)c1ccccc1 (stereo unspecified) | 0.3
NC(CC12CC3CC(CC(C3)C1)C2)C(=O)O (stereo unspecified) | 0.43
CC[C@H](C)[C@H](NC(=O)[C@H](Cc1c[nH]c2ccccc12)NC(C)=O)C(=O)NCC(N)=O (Ac-Trp-Ile-Gly-NH2) | 0.62
NC(=O)C(F)(F)F | 0.12
NCCc1ccccn1 | 0.08
CCCCc1ccc(S(N)(=O)=O)cc1 | 2.45
O=C(O)c1ccc(Cl)cc1[N+](=O)[O-] | 2.08
COc1ccc(OCC(=O)O)cc1 | 1.23
COP(=O)(C=C(Cl)Cl)OC | 1.4

Structure (SMILES) | logP
C[Si](C)(C)Cc1ccccc1 | 4.13
FC(F)(F)Cl | 1.65
CNC(=O)Oc1cc(C)cc(C(C)C)c1 | 3.1
CCn1c(=O)c2[nH]c(-c3ccccc3)nc2n(CC)c1=O | 2.93
Brc1cccc(Br)c1 | 3.75
CCCCCCCOc1cccc(NC(=O)OCCN2CCCCC2)c1 | 5.53
O=[N+]([O-])c1ccccc1CO | 1.24
O=C(O)c1cc(I)cc(I)c1O | 4.56
Nc1ccc(-c2nc([N+](=O)[O-])c[nH]2)cc1 | 0.86
CN(C)CCN1c2ccccc2Sc2ccccc21 | 4.2
NC(Cc1ccccc1)Cc1ccccc1 | 3.35
CN(C)N=O | -0.57
O=C(O)C(c1ccccc1)n1cccc1 (stereo unspecified) | 1.57
CC(=O)C(=Cc1ccccc1Cl)C(C)=O | 2.19
Cc1ccc(C)c(C)c1 | 3.63
NNP(=O)(Oc1ccccc1)Oc1ccccc1 | 1.51
O=[N+]([O-])C=Cc1cccs1 | 1.96
ClCc1ccccc1 | 2.3
CON(C)C(=O)Nc1ccc(C(=O)c2ccccc2)cc1 | 2.86
CCCCCc1ccncc1 | 3.75
Cc1cccc(N(C)C)c1 | 2.8
CC12CCC3C(CCC4(O)CC(O)CCC34C=O)C1(O)CCC2C1=CC(=O)OC1 (stereo unspecified) | 0.64
Cc1cc(Cl)c(N=C2NCCN2)c(Cl)c1 | 1.92
COc1ccc(C(=O)NN)cc1 | 0.25

Structure (SMILES) | logP
CCC(C)=O | 0.29
FC(F)(F)c1nc2c(Br)c(Br)c(Br)c(Br)c2[nH]1 | 4.81
CC(=O)c1cnc2ccccc2c1 | 1.76
FC(Cl)(Cl)Cl | 2.53
OCC1OC(Oc2ccc(Cl)cc2)C(O)C(O)C1O (stereo unspecified) | 0.26
CCOP(=S)(OCC)Oc1ccc(SC)cc1C | 4.16
c1ccc2nnccc2c1 | 0.93
CCC(=O)CC | 0.99
Oc1cc(Cl)c(Cl)c(Cl)c1 | 4.01
Clc1cc(Cl)c(-c2ccccc2)c(Cl)c1 | 5.47
CCOC(=O)C(=Cc1cccc(C)c1)C(=O)OCC | 3.55
COC(=O)c1ccccc1N=NN(C)C | 2.51
Cc1ccc(O)c(C(=O)O)c1 | 2.78
C=C1C(=O)OC2C1CCC(C)C1(O)C=CC(=O)C21C (stereo unspecified) | 0.77
Nc1ccc(C[C@H](N)C(=O)O)cc1 | -2.2
c1ncc2nc[nH]c2n1 | -0.37
O=C(COc1ccccc1)NNCc1ccccc1 | 2.16
CNC(=O)Oc1ccc(Cl)c(C)c1 | 2.57
CC(=O)c1ccco1 | 0.52
FC(F)OC(Cl)C(F)(F)F (stereo unspecified) | 2.06
COc1cc2c(c(OC)c1OC)-c1ccc(=O)c(OC)cc1[C@@H](NC(=O)C(F)(F)F)CC2 | 2.08
O=[N+]([O-])c1ccccc1Nc1ccccc1 | 3.66
CC(=O)NCC(=O)N[C@@H](CC(C)C)C(=O)NCC(N)=O (Ac-Gly-Leu-Gly-NH2) | -1.23
CCCNc1nc(NC)nc(SC(F)F)n1 | 3.28

Structure (SMILES) | logP
Nc1nc(N)nc(-c2cccc(C(F)(F)F)c2)n1 | 2.67
O=C(O)Cc1c[nH]c2ccccc12 | 1.41
Oc1cc(Cl)ccc1Cl | 3.06
CCOP(=S)(OCC)N1C(=O)c2ccccc2C1=O | 3.48
Cc1cc2nccnc2cc1C | 2.29
CC(=O)Oc1ccccc1[N+](=O)[O-] | 1.55
O=C(NCCO)C(F)(F)Cn1ccnc1[N+](=O)[O-] | -0.52
ClC(Cl)(Cl)Sc1ccccc1 | 3.78
CN(C)C(N(C)C)=S(I)c1c(Cl)cc(Cl)cc1Cl (stereo unspecified) | 0.05
Clc1ccc(-c2ccccc2Cl)c(Cl)c1 | 5.76
COP(=O)(OC)OC | -0.65
CON(C)/N=N/c1ccc(C(N)=O)cc1 | 1.19
CCCCOC(=O)CNC(=O)CCCCSc1[nH]cnc2ncnc1-2 | 1.39
CN=Cc1ccccc1 | 1.64
CC(C)C(C#N)c1ccccc1 (stereo unspecified) | 2.33
CN(C)/N=N/c1ccccc1CO | 1.73
COC(=O)c1ccc(N=NN(C)C)cc1 | 3.22
CC1CCCC(C)N1 (stereo unspecified) | 1.53
CCC(N)=O | -0.66
CCCS(=O)(=O)CCn1c([N+](=O)[O-])cnc1C | 0.23
CCCCCC(C)=O | 1.98
CC[C@H](C)[C@H](NC(C)=O)C(=O)N[C@@H](C)C(=O)N[C@H](C(N)=O)C(C)C | -0.21
c1ccn2cccc2c1 | 2.49
Clc1cc(Cl)cc(Cl)c1 | 4.19

Structure (SMILES) | logP
c1ccc(-n2cccn2)cc1 | 2.2
O=C(O)Cc1ccccc1Nc1cccc(Cl)c1Cl | 4.86
FCF | 0.2
CCOC(=O)C(=Cc1ccccc1F)C(=O)OCC | 3.04
O=[N+]([O-])CCO | -0.42
CC12CCC(=O)C=C1CCC1C2C(O)CC2(C)C1CCC2(O)C(=O)COC(=O)CCC(N)=O (stereo unspecified) | 1.43
CNC(=O)OCc1c2c(n3c1C(OC(C)=O)CC3)C(=O)C=C(OC)C2=O (stereo unspecified) | 1.19
CSc1ccc(O)cc1 | 1.78
Clc1ccc(-c2ccc(Cl)c(Cl)c2Cl)cc1 | 5.84
COc1ccc(CN(C)N=O)cc1 | 1.62
N#Cc1ccc(C(=O)O)cc1 | 1.56
O=C(CCl)Nc1ccccc1 | 1.63
CC(C)N1CCN=C1CN1CCCCSc2ccc(Cl)cc21 | 5.15
CCC1(c2ccccc2)C(=O)NC(=O)N(C(C)C)C1=O (stereo unspecified) | 2.58
Clc1ccc(-c2ccc(Cl)c(Cl)c2Cl)c(Cl)c1Cl | 7.31
O=C(O)COc1ccccc1I | 2.33
N#CC(Cl)(Cl)Cl | 2.09
ONc1ccccc1 | 0.79
CC(C)C(=O)c1ccccc1 | 2.73
Cc1cccc(NC(N)=O)c1 | 1.29
NS(=O)(=O)c1ccc(I)cc1 | 1.59
NC(N)=Nc1ccccc1 | 0.53

Source: the OPERA property sets (Mansouri et al. 2018)
